Experimental data taken from ChEMBL document CHEMBL4834462, “Naphtho-γ-pyrone Dimers from an Endozoic Aspergillus niger and the Effects of Coisolated Monomers in Combination with Cisplatin on a Cisplatin-Resistant A549 Cell Line” (J Nat Prod, 2021).
Blank lines part the entries; values can stand above or below the molecule they belong to. Active and inactive are the calls of the source. The calls are words filed in the database; no cut-off is given here.

Key:
A549 [1] = test: Anticancer activity against cisplatin-resistant human A549 cells assessed as reduction in cell viability measured after 48 hrs in presence of cisplatin by MTT assay; format: functional, cell-based; conditions: A549, 48 h
A549 [2] = test: Synergistic antiproliferative activity against cisplatin-resistant human A549 cells assessed as combination index at 10 uM incubated for 48 hrs in presence of 4.5 uM cisplatin by MTT assay; format: functional
A549 [3] = test: Downregulation of HO-1 protein expression in cisplatin-resistant human A549 cells at 15 uM incubated for 48 hrs by western blot analysis; format: functional, cell-based
A549 [4] = test: Induction of intracellular ROS generation in cisplatin-resistant human A549 cells measured after 24 hrs by DCFH-DA staining based laser scanning confocal microscopy; format: functional, cell-based; conditions: dose 10-20 µM
A549 [5] = test: Synergistic antiproliferative activity against cisplatin-resistant human A549 cells assessed as combination index at 10 uM incubated for 48 hrs in presence of 3 uM cisplatin by MTT assay; format: functional
A549 [6] = test: Induction of apoptosis in cisplatin-resistant human A549 cells assessed as early apoptotic cells at 20 uM incubated for 24 hrs by AnnexinV-FITC/PI staining based flow cytometry (reference value: 2.17%); format: functional
A549 [7] = test: Induction of apoptosis in cisplatin-resistant human A549 cells assessed as necrotic cells at 10 uM incubated for 24 hrs by AnnexinV-FITC/PI staining based flow cytometry (reference value: 0.53%); format: functional
A549 [8] = test: Induction of apoptosis in cisplatin-resistant human A549 cells assessed as necrotic cells at 20 uM incubated for 24 hrs by AnnexinV-FITC/PI staining based flow cytometry (reference value: 0.53%); format: functional
A549 [9] = test: Synergistic antiproliferative activity against cisplatin-resistant human A549 cells assessed as combination index at 15 uM incubated for 48 hrs in presence of 4.5 uM cisplatin by MTT assay; format: functional
A549 [10] = test: Synergistic antiproliferative activity against cisplatin-resistant human A549 cells assessed as combination index at 15 uM incubated for 48 hrs in presence of 3 uM cisplatin by MTT assay; format: functional
A549 [11] = test: Induction of apoptosis in cisplatin-resistant human A549 cells assessed as viable cells at 20 uM incubated for 24 hrs by AnnexinV-FITC/PI staining based flow cytometry (reference value: 86.5%); format: functional; conditions: read-out: Activity
A549 [12] = test: Downregulation of NQO-1 protein expression in cisplatin-resistant human A549 cells at 15 uM incubated for 48 hrs in presence of cisplatin by western blot analysis; format: functional, cell-based
A549 [13] = test: Induction of apoptosis in cisplatin-resistant human A549 cells assessed as late apoptotic cells at 20 uM incubated for 24 hrs by AnnexinV-FITC/PI staining based flow cytometry (reference value: 10.8%); format: functional
A549 [14] = test: Inhibition of redox balance in cisplatin-resistant human A549 cells assessed as reduction in ratio of GSH/GSSG measured after 24 hrs; format: functional, cell-based; conditions: dose 10-20 µM
A549 [15] = test: Synergistic antiproliferative activity against cisplatin-resistant human A549 cells assessed as combination index at 20 uM incubated for 48 hrs in presence of 4.5 uM cisplatin by MTT assay; format: functional
A549 [16] = test: Synergistic antiproliferative activity against cisplatin-resistant human A549 cells assessed as combination index at 20 uM incubated for 48 hrs in presence of 3 uM cisplatin by MTT assay; format: functional
A549 [17] = test: Synergistic antiproliferative activity against cisplatin-resistant human A549 cells assessed as combination index at 15 uM incubated for 48 hrs in presence of 1.5 uM cisplatin by MTT assay; format: functional
A549 [18] = test: Synergistic antiproliferative activity against cisplatin-resistant human A549 cells assessed as combination index at 20 uM incubated for 48 hrs in presence of 1.5 uM cisplatin by MTT assay; format: functional
A549 [19] = test: Induction of apoptosis in cisplatin-resistant human A549 cells assessed as late apoptotic cells at 10 uM incubated for 24 hrs by AnnexinV-FITC/PI staining based flow cytometry (reference value: 10.8%); format: functional
A549 [20] = test: Downregulation of Nrf2 protein expression in cisplatin-resistant human A549 cells at 15 uM incubated for 48 hrs in presence of cisplatin by western blot analysis; format: functional, cell-based
A549 [21] = test: Induction of apoptosis in cisplatin-resistant human A549 cells assessed as viable cells at 10 uM incubated for 24 hrs by AnnexinV-FITC/PI staining based flow cytometry (reference value: 86.5%); format: functional; conditions: read-out: Activity
A549 [22] = test: Synergistic antiproliferative activity against cisplatin-resistant human A549 cells assessed as combination index at 10 uM incubated for 48 hrs in presence of 1.5 uM cisplatin by MTT assay; format: functional
A549 [23] = test: Induction of apoptosis in cisplatin-resistant human A549 cells assessed as early apoptotic cells at 10 uM incubated for 24 hrs by AnnexinV-FITC/PI staining based flow cytometry (reference value: 2.17%); format: functional
A549 [24] = test: Downregulation of AKT protein expression in cisplatin-resistant human A549 cells at 15 uM incubated for 48 hrs in presence of cisplatin by western blot analysis; format: functional, cell-based
A549 [25] = test: Downregulation of HO-1 protein expression in cisplatin-resistant human A549 cells at 15 uM incubated for 48 hrs in presence of cisplatin by western blot analysis; format: functional, cell-based

- IC50 (A549 [1]): > 20 µM
SMILES: COc1cc(OC)c2c(c1)c(-c1c(OC)cc3cc4oc(C)cc(=O)c4c(O)c3c1OC)c(O)c1c(=O)cc(C)oc12 [ASPERPYRONE C]

SMILES: COc1cc(OC)c2c(O)c3c(=O)cc(C)oc3cc2c1 [RUBROFUSARIN B]
- IC50 (A549 [1]): > 20 µM

- IC50 (A549 [1]): > 20 µM
SMILES: COc1cc(OC)c2c(c1)c(-c1c(OC)cc3cc(O)c4c(=O)cc(C)oc4c3c1OC)c(O)c1c(=O)cc(C)oc12

- IC50 (A549 [1]): > 20 µM
SMILES: COc1cc(OC)c2c(c1)c(-c1c(O)cc3cc4oc(C)cc(=O)c4c(O)c3c1OC)c(O)c1c(=O)cc(C)oc12

- IC50 (A549 [1]): > 20 µM
SMILES: COc1cc(O)cc2cc3oc(C)cc(=O)c3c(O)c12

- IC50 (A549 [1]): > 20 µM
SMILES: COc1cc(OC)c2c(O)c3c(=O)cc(C)oc3c(-c3c(OC)cc4cc5oc(C)cc(=O)c5c(O)c4c3OC)c2c1 [AURASPERONE A]

SMILES: COc1cc(OC)c2c(O)c3c(=O)cc(C)oc3c(-c3c(OC)cc4cc(O)c5c(=O)cc(C)oc5c4c3OC)c2c1 [FONSECINONE A]
- IC50 (A549 [1]): > 20 µM

- IC50 (A549 [1]): > 20 µM
SMILES: COc1cc(OC)c2c(O)c3c(=O)cc(C)oc3c(-c3c(O)cc4cc(O)c5c(=O)cc(C)oc5c4c3OC)c2c1 [ASPERPYRONE A]

- IC50 (A549 [1]): > 20 µM
SMILES: COc1cc(OC)c2c(O)c3c(c(-c4c(OC)cc5cc(O)c6c(=O)cc(C)oc6c5c4OC)c2c1)O[C@](C)(O)CC3=O

- IC50 (A549 [1]): > 20 µM
SMILES: COc1cc(O)cc2cc(O)c3c(=O)cc(C)oc3c12
- CI (A549 [2]): 0.83
- inhibition (A549 [3]): Active
- Activity (A549 [4]): Dose-Dependent Effect
- CI (A549 [5]): 0.95
- Activity (A549 [6]): 4.05%
- Activity (A549 [7]): 0.9%
- Activity (A549 [8]): 1.34%
- CI (A549 [9]): 0.79
- CI (A549 [10]): 0.72
- viability at 20 µM (A549 [11]): 53.3%
- inhibition (A549 [12]): Active
- Activity (A549 [13]): 41.3%
- inhibition (A549 [14]): Dose-Dependent Effect
- CI (A549 [15]): 0.81
- CI (A549 [16]): 0.76
- CI (A549 [17]): 0.75
- CI (A549 [18]): 0.76
- Activity (A549 [19]): 23.6%
- inhibition (A549 [20]): Active
- viability at 10 µM (A549 [21]): 72.6%
- CI (A549 [22]): 1.95
- Activity (A549 [23]): 2.87%
- inhibition (A549 [24]): Active
- inhibition (A549 [25]): Active

- IC50 (A549 [1]): > 20 µM
SMILES: O=C1C=C2O[C@H]3CC(=O)c4c(O)cc(O)cc4C3=C2c2cc(O)cc(O)c21

- IC50 (A549 [1]): > 20 µM
SMILES: COc1cc(OC)c2c(O)c3c(=O)cc(C)oc3c(-c3c(O)cc4cc5oc(C)cc(=O)c5c(O)c4c3OC)c2c1
